Consider 1 substance from paper PMC4742190, “Mitotic entry: Non-genetic heterogeneity exposes the requirement for Plk1” (Oncotarget, 2015).

Among the targets are Plk2 (Homo sapiens, UniProt Q9NYY3); Plk1 (Homo sapiens, UniProt P53350); Plk3 (Homo sapiens, UniProt Q9H4B4).
Common to all, as to assay: enzyme (kinase) assay
Common to all, as to assay type: biochemical

As usually defined, the IC50 is the concentration that gives 50% inhibition.

Plk1, sequence (P53350 2-603): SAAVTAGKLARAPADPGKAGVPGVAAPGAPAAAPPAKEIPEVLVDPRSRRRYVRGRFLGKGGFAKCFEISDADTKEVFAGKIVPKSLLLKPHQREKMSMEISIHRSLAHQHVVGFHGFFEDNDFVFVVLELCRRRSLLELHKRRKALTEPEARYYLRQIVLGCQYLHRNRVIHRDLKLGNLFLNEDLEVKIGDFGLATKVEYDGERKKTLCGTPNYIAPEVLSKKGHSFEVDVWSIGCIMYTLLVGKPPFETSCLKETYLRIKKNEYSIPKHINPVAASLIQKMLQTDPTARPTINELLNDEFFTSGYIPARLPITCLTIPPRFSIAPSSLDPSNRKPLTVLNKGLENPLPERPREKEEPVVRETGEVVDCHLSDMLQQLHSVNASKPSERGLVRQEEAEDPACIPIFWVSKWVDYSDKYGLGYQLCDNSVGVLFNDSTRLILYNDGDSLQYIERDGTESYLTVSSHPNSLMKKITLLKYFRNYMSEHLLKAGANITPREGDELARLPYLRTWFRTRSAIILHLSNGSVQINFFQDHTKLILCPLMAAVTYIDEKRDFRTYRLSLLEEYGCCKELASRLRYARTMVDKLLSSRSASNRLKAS
Plk3, sequence (Q9H4B4 whole entry): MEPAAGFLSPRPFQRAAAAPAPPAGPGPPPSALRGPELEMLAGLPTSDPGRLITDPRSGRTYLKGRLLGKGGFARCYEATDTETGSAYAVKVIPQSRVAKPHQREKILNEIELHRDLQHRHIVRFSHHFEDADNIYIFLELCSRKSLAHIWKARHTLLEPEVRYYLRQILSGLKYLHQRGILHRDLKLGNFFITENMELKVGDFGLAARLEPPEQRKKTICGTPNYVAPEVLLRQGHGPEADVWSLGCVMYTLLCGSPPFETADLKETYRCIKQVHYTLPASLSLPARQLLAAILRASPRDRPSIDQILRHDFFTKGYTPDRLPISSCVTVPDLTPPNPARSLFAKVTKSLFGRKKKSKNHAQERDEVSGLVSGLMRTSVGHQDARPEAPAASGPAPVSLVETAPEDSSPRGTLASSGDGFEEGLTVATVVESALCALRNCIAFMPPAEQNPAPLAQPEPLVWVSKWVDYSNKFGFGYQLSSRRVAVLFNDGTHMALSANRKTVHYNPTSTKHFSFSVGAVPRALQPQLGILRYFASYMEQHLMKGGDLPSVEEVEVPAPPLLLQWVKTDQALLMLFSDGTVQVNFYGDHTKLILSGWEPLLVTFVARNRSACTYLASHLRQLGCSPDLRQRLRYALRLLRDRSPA
Plk2, sequence (Q9NYY3 whole entry): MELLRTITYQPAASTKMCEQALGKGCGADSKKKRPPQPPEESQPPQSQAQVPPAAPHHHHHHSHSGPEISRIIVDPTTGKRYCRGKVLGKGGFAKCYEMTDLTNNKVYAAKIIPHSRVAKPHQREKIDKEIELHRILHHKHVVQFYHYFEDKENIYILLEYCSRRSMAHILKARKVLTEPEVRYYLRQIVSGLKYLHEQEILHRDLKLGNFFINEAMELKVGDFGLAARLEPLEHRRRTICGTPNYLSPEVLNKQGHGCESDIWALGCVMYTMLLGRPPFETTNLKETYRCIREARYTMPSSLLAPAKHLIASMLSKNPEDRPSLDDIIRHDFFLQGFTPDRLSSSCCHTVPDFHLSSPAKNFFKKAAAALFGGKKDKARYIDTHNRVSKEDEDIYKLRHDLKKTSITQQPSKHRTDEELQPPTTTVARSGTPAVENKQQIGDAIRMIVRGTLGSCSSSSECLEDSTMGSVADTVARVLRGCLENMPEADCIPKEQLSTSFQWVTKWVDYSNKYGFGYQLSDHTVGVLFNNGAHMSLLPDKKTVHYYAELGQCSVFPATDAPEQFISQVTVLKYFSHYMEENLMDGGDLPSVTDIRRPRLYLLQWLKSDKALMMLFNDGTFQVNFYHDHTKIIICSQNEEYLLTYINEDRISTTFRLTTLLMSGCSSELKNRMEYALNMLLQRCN

With CYC140844, the IC50 at Plk2 stood at 113 nM; against Plk1, 36 nM; against Plk3, 702 nM.
